Publication PMC11586334, “Molecular hybridization modification improves the stability and immunomodulatory activity of TP5 peptide” (Frontiers in Immunology, 2024)
Ends that are not written are not given here.

How the values were obtained:
RAW264.7 macrophages = format: cell-based, murine
Procedure: Murine macrophage cells (RAW264.7) were purchased from the Shanghai Cell Bank, the Institute of Cell Biology, China Academy of Sciences and cultured in Dulbecco’s modified Eagle’s medium (DMEM; HyClone, UT, USA). The DMEM medium was supplemented with 10% (v/v) fetal bovine serum (Bioscience) and 1% (v/v) penicillin/streptomycin (HyClone) and maintained at 37°C in a humidified atmosphere (5% CO2, 95% air).
RAW264.7 viability was measured using a Cell Counting Kit-8 (CCK-8) Assay Kit (Dojinbo, Japan). Cells were seeded in 96-well plates at a density of 2 × 10^4 cells/well and treated with or without YW12D, TP5 and YTP peptides (10–80 μg/mL). After incubation for 24 h, the cells were then incubated in CCK-8 reagent for 4 h at 37°C. The absorbance of each well was measured at 450 nm using a 96-well microplate reader. Cell viability was evaluated as follows:
(1) Cell viability (%)=(OD450 (sample)/OD450 (control))×100%

in vitro = in vitro ADME; details: rat
Procedure: Rat plasma was collected by centrifuging whole blood from healthy adult rats. YW12D, TP5, and YTP (10 µg/mL) were incubated for different time at 37°C in rat plasma. The samples were collected into prechilled tubes containing 1 mL of acidic acetone (hydrochloric acid/acetone/H2O, 1:40:5) and centrifuged at 2, 000 × g for 20 min at 4°C. The obtained precipitates were dried in vacuum. Then, the dried precipitates were dissolved in 0.5 mL of 1 M acetic acid. The peptide analysis was conducted using HPLC. The half-lives of the peptides were calculated by a logarithm-linear regression analysis of the peptide concentrations.

recombinant TLR2 = target: T1, recombinant TLR2 (Homo sapiens, UniProt O60603); test: SPR binding of YTP to immobilized TLR2; details: ProteOn XPR36, TLR2 immobilized by amino coupling, 25°C, PBS with 1% Tween 20, 1:1 model
T1 construct: purchased R&D Systems
Procedure: […] (SPR) experiments were conducted using a ProteOn XPR36 instrument (Bio-Rad, Hercules, CA, USA) with a ProteOn GLH sensor chip (Bio-Rad) at 25°C. The running buffer (PBS with 1% Tween 20) was continuously passed into the reaction chamber at 30 μL/min. The SPR sensing chip with recombinant TLR2 (R&D Systems) was immobilized by amino coupling to capture YTP. The binding affinity of YTP to TLR2 was examined using peptide concentrations of […]. The running buffer was injected into the empty channels as a reference. Sensor chip regeneration and desorption were achieved by injecting 10 mM Gly-HCl buffer (pH 2.5) before the next round of analyses. The experimental data were processed using ProteOn manager software (version 2.0). The binding curves were processed for the start injection alignment and baseline. The reference-subtracted sensorgram was then fitted to the curves labeling a homogeneous 1:1 model. Protein surface data were grouped to fit the association (Ka) and dissociation (Kd) rate constants. The symmetry dissociation constant (KD) for the peptide-[…] interaction was evaluated by using the following equation: […]

[1] = target: recombinant TLR2 (Toll-like receptor 2) (UniProt O60603); test: SPR; ProteOn XPR36, GLH sensor chip; recombinant TLR2 immobilised by amino coupling; YTP passed over at 0, 1.25, 2.5, 5 and 10 (μM in the results, mM in the methods); 25°C; running buffer PBS with 1% Tween 20, 30 μL/min; homogeneous 1:1 model
Chain of recombinant TLR2 (Toll-like receptor 2) (O60603 21-588): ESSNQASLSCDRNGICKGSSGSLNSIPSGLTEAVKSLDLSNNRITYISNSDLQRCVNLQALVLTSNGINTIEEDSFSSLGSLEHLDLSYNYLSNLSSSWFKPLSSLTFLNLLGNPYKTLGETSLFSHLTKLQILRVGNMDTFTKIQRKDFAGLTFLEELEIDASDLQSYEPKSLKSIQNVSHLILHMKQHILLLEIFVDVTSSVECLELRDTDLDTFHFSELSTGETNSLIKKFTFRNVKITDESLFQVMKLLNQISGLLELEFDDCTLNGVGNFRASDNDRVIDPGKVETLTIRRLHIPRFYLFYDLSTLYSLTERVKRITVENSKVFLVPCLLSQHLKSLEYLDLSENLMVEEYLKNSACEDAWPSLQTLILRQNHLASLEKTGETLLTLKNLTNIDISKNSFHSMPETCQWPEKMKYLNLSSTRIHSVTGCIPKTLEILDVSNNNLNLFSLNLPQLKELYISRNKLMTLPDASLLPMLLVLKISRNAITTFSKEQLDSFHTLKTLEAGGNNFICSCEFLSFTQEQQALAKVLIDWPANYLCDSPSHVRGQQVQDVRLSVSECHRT

T1 sequence (O60603 21-784, species assumed): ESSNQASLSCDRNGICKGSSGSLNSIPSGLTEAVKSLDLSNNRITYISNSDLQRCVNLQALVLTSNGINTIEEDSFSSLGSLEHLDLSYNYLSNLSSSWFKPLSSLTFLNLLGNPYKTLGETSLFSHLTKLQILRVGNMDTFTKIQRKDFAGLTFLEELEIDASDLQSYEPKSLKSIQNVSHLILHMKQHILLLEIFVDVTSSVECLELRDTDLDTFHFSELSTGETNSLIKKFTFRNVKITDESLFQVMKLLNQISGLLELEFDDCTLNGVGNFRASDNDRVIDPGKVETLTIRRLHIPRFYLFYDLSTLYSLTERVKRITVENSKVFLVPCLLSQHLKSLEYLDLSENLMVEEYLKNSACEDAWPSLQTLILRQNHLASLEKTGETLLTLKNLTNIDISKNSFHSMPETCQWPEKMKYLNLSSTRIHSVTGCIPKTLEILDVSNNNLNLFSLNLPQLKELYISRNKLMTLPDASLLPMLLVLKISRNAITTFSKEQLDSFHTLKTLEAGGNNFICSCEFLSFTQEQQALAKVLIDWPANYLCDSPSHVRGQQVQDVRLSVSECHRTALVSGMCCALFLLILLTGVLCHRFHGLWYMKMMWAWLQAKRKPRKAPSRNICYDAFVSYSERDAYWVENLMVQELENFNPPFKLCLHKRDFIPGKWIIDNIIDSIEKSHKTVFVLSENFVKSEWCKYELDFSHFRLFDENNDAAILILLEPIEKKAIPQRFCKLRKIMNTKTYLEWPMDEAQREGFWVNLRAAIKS

Molecule	cytotoxicity at high dose (RAW264.7 macrophages)	half-life in plasma (in vitro)	half-life at 10 µg/mL (in vitro; plasma) [h]	Ka (association rate constant) (recombinant TLR2) [M⁻¹ s⁻¹]	Kd (dissociation rate constant) (recombinant TLR2) [s⁻¹]	Kd [1] [nM]
YVKLWRMIKFIRRKDVY [YTP]	no significant cytotoxicity	more than 2 h	2	4.31e+06	0.0162	
YVKLWRMIKFIRRKDVY [hybrid peptide YW12D-TP5 (YTP)]						3.76
